Laboratory results from article PMC6891762, “Novel Isoxazolidine and γ-Lactam Analogues of Homonucleosides” (Molecules, 2019).

Assays:
Format in all cases: cell-based
[1] = tested on: HCT-116 (colorectal carcinoma) cells; assay: Cytostatic activity, HCT-116; conditions: concentration causing 50% decrease in cell proliferation
Method: (§1) The 50% cytostatic inhibitory concentration (IC50) causing a 50% decrease in cell proliferation was determined for all isolated isoxazolidines 14 and γ-lactams 15 toward nine cancerous cell lines (Capan-1 (pancreatic adenocarcinoma), Hap1 (chronic myeloid leukemia), HCT-116 (colorectal carcinoma), NCI-H460 (lung carcinoma), DND-41 (acute lymphoblastic leukemia), HL-60 (acute myeloid leukemia), K-562 (chronic myeloid leukemia), MM.1S (multiple myeloma) and Z-138 (non-Hodgkin lymphoma)) and normal retina (non-cancerous) cells (hTERT RPE-1). Docetaxel, etoposide and stauroporine were used as the reference compounds.
(§2) All assays were performed in 96-well microtiter plates. To each well was added (5−7.5) × 10^4 tumor cells and a given amount of the test compound. The cells were allowed to proliferate at 37 °C in a humidified, CO2-controlled atmosphere. At the end of the incubation period, the cells were counted in a Coulter counter. The IC50 (50% inhibitory concentration) was defined as the concentration of the compound that inhibited cell proliferation by 50%.

[2] = tested on: Hap1 (chronic myeloid leukemia) cells; assay: Cytostatic activity, Hap1; conditions: concentration causing 50% decrease in cell proliferation
Method: as §1, §2

[3] = tested on: NCI-H460 (lung carcinoma) cells; assay: Cytostatic activity, NCI-H460; conditions: concentration causing 50% decrease in cell proliferation
Method: as §1, §2

[4] = tested on: hTERT RPE-1 normal retina (non-cancerous) cells; assay: Cytostatic activity, normal retina cells; conditions: concentration causing 50% decrease in cell proliferation
Method: as §1, §2

[5] = tested on: Capan-1 (pancreatic adenocarcinoma) cells; assay: Cytostatic activity, Capan-1
Method: as §1, with “RPE-1).” for “RPE-1). Docetaxel, etoposide and stauroporine were used as the reference compounds.”
as §2, with “counter.” for “counter. The IC50 (50% inhibitory concentration) was defined as the concentration of the compound that inhibited cell proliferation by 50%.”

[6] = Homo sapiens, CAPAN-1, concentration causing 50% decrease in cell proliferation
[7] = concentration causing 50% decrease in cell proliferation

| SMILES | IC50 ([1]; Homo sapiens, HCT-116) | IC50 ([2]; Homo sapiens, HAP1) | IC50 ([3]; Homo sapiens, NCI-H460) | IC50 [5, 6] | IC50 [5, 7] | IC50 (µM) HCT-116 Colorectal Carcinoma [1] | IC50 [1] | IC50 [2] | IC50 [3] | IC50 [4] | IC50 ([4]; hTERT-RPE1) |
| --- | --- | --- | --- | --- | --- | --- | --- | --- | --- | --- | --- |
| CN[C@@H]1C[C@H]2O[C@@](C)([C@@H]1OC)n1c3ccccc3c3c4c(c5c6ccccc6n2c5c31)C(=O)NC4 [Stauroporine, reference compound] | – | – | – | – | – | – | 0.09 µM | 3.55 µM | 11.5 µM | 0.25 µM | – |
| COC(=O)[C@H]1C[C@H](Cn2cc(Br)c(=O)[nH]c2=O)N(C)O1 (relative stereo) [trans-14d, Methyl trans-3-{[5-bromo-2,4-dioxo-3,4–dihydropyrimidin-1(2H)-yl]metyl}-2-methylisoxazolidine-5-carboxylate] | – | – | – | – | 67.8 µM | – | > 100 µM | > 100 µM | 76.1 µM | > 100 µM | – |
| COC(=O)[C@H]1C[C@H](Cn2cc(Cl)c(=O)[nH]c2=O)N(C)O1 (relative stereo) [trans-14e, Methyl trans-3-{[5-chloro-2,4-dioxo-3,4–dihydropyrimidin-1(2H)-yl]metyl}-2-methylisoxazolidine-5-carboxylate] | – | – | – | – | 38.5 µM | – | 43.5 µM | 42.7 µM | 41.9 µM | > 100 µM | – |
| COC(=O)[C@H]1C[C@H](Cn2cc(I)c(=O)[nH]c2=O)N(C)O1 (relative stereo) [trans-14f, Methyl trans-3-{[5-iodo-2,4-dioxo-3,4–dihydropyrimidin-1(2H)-yl]metyl}-2-methylisoxazolidine-5-carboxylate] | – | – | – | – | 41.4 µM | – | 53.5 µM | 47 µM | 41.1 µM | > 100 µM | – |
| CN1C(=O)[C@H](O)C[C@H]1CN1CCC(=O)NC1=O [trans-15g, trans-1-[(4-Hydroxy-1-methyl-5-oxopyrrolidin-2-yl)metyl]dihydropyrimidine-2,4(1H,3H)-dione] | > 100 µM | 49.4 µM | 69.3 µM | 46.7 µM | – | – | – | – | – | – | > 100 µM |
| COC(=O)[C@H]1C[C@H](Cn2cc(C)c(=O)[nH]c2=O)N(C)O1 (relative stereo) [trans-14b, Methyl trans-2-methyl-3-{[5-methyl-2,4-dioxo-3,4–dihydropyrimidin-1(2H)-yl]methyl}isoxazolidine-5-carboxylate] | > 100 µM | > 100 µM | > 100 µM | 51.3 µM | – | – | – | – | – | – | > 100 µM |
| COC(=O)[C@@H]1C[C@H](Cn2cc(I)c(=O)[nH]c2=O)N(C)O1 (relative stereo) [cis-14f, Methyl cis-3-{[5-iodo-2,4-dioxo-3,4–dihydropyrimidin-1(2H)-yl]metyl}-2-methylisoxazolidine-5-carboxylate] | – | – | – | – | 42 µM | – | 57.9 µM | 40.9 µM | 44.6 µM | – | – |
| COC(=O)[C@H]1C[C@H](Cn2cc(F)c(=O)[nH]c2=O)N(C)O1 (relative stereo) [trans-14c, Methyl trans-3-{[5-fluoro-2,4-dioxo-3,4–dihydropyrimidin-1(2H)-yl]metyl}-2-methylisoxazolidine-5-carboxylate] | – | – | – | – | 49 µM | – | > 100 µM | > 100 µM | > 100 µM | > 100 µM | – |
| CN1C(=O)[C@@H](O)C[C@H]1CN1CCC(=O)NC1=O [cis-15g, cis-1-[(4-Hydroxy-1-methyl-5-oxopyrrolidin-2-yl)metyl]dihydropyrimidine-2,4(1H,3H)-dione] | > 100 µM | 56.3 µM | 42.7 µM | 41.3 µM | – | – | – | – | – | – | > 100 µM |
| CN1C(=O)[C@@H](O)C[C@@H]1Cn1cc(Br)c(=O)[nH]c1=O (relative stereo) [trans-15d, trans-5-Bromo-1-[(4-hydroxy-1-methyl-5-oxopyrrolidin-2-yl)methyl]pyrimidine-2,4(1H,3H)-dione] | > 100 µM | 58.5 µM | 42.1 µM | 24.8 µM | – | – | – | – | – | – | > 100 µM |
| COC(=O)[C@@H]1C[C@H](Cn2ccc(=O)[nH]c2=O)N(C)O1 (relative stereo) [cis-14a, Methyl cis-3-{[2,4-dioxo-3,4–dihydropyrimidin-1(2H)-yl]methyl}-2-methylisoxazolidine-5-carboxylate] | > 100 µM | > 100 µM | > 100 µM | 54.8 µM | – | – | – | – | – | – | > 100 µM |
| COC(=O)[C@@H]1C[C@H](Cn2cc(C)c(=O)[nH]c2=O)N(C)O1 (relative stereo) [cis-14b, Methyl cis-2-methyl-3-{[5-methyl-2,4-dioxo-3,4–dihydropyrimidin-1(2H)-yl]methyl}isoxazolidine-5-carboxylate] | > 100 µM | 63 µM | 60.3 µM | 55.2 µM | – | – | – | – | – | – | > 100 µM |

More lines, main results first:

| IC50 ([1]; Homo sapiens, HCT-116) | IC50 ([2]; Homo sapiens, HAP1) | IC50 ([3]; Homo sapiens, NCI-H460) | IC50 [5, 6] | IC50 [5, 7] | IC50 (µM) HCT-116 Colorectal Carcinoma [1] | SMILES | IC50 [1] | IC50 [2] | IC50 [3] | IC50 [4] | IC50 ([4]; hTERT-RPE1) |
| --- | --- | --- | --- | --- | --- | --- | --- | --- | --- | --- | --- |
| 43.5 µM | 50.2 µM | 42.5 µM | 18.2 µM | 21.5 µM | – | CN1C(=O)[C@H](O)C[C@@H]1Cn1cnc2c(=O)n(C)c(=O)n(C)c21 (relative stereo) [cis-15h, cis-9-[(4-Hydroxy-1-methyl-5-oxopyrrolidin-2-yl)methyl]-1,3-dimethyl-3,9–dihydro-1H-purine-2,6-dione] | – | – | – | – | > 100 µM |
| 60.9 µM | 53.6 µM | 51.2 µM | 43.2 µM | – | – | COC(=O)[C@H]1C[C@H](Cn2cnc3c(=O)n(C)c(=O)n(C)c32)N(C)O1 (relative stereo) [trans-14h, Methyl trans-3-[(1,3-dimethyl-2,6-dioxo-1,2,3,6-tetrahydro-9H-purin-9-yl)methyl]-2-methylisoxazolidine-5-carboxylate] | – | – | – | – | > 100 µM |
| > 100 µM | > 100 µM | 90.3 µM | 62.6 µM | – | – | COC(=O)[C@H]1C[C@H](Cn2ccc(=O)[nH]c2=O)N(C)O1 (relative stereo) [trans-14a, Methyl trans-3-{[2,4-dioxo-3,4–dihydropyrimidin-1(2H)-yl]methyl}-2-methylisoxazolidine-5-carboxylate] | – | – | – | – | > 100 µM |
| 45.7 µM | > 100 µM | 49.8 µM | 47.2 µM | – | – | CN1C(=O)[C@@H](O)C[C@@H]1Cn1cnc2c(=O)n(C)c(=O)n(C)c21 (relative stereo) [trans-15h, trans-9-[(4-Hydroxy-1-methyl-5-oxopyrrolidin-2-yl)methyl]-1,3-dimethyl-3,9-dihydro-1H-purine-2,6-dione] | – | – | – | – | > 100 µM |
| > 100 µM | 54.5 µM | 47.7 µM | 21.5 µM | 18.2 µM | – | CN1C(=O)[C@@H](O)C[C@@H]1Cn1cc(Cl)c(=O)[nH]c1=O (relative stereo) [trans-15e, trans-5-Chloro-1-[(4-hydroxy-1-methyl-5-oxopyrrolidin-2-yl)methyl]pyrimidine-2,4(1H,3H)-dione] | – | – | – | – | > 100 µM |
| 49 µM | 45.1 µM | 33.2 µM | 62.2 µM | – | – | COC(=O)[C@@H]1C[C@H](Cn2cnc3c(=O)n(C)c(=O)n(C)c32)N(C)O1 (relative stereo) [cis-14h, Methyl cis-3-[(1,3-dimethyl-2,6-dioxo-1,2,3,6-tetrahydro-9H-purin-9-yl)methyl]-2-methylisoxazolidine-5-carboxylate] | – | – | – | – | > 100 µM |
| 0.25 µM | 1.19 µM | 0.89 µM | 0.95 µM | – | – | CC(=O)O[C@@]12CO[C@@H]1C[C@H](O)[C@@]1(C)C(=O)[C@H](O)C3=C(C)[C@@H](OC(=O)[C@H](O)[C@@H](NC(=O)OC(C)(C)C)c4ccccc4)C[C@@](O)([C@@H](OC(=O)c4ccccc4)[C@H]21)C3(C)C [Docetaxel, reference compound] | – | – | – | – | 25 µM |
| 65.7 µM | 47.8 µM | 54.7 µM | 53.7 µM | – | – | CN1C(=O)[C@@H](O)C[C@@H]1Cn1cnc2c(N)ncnc21 (relative stereo) [trans-15i, trans-5-[(6-Amino-9H-purin-9-yl)methyl]-3-hydroxy-1-methylpyrrolidin-2-one] | – | – | – | – | > 100 µM |
| 90 µM | 49.9 µM | 49.4 µM | 52.1 µM | – | – | CN1C(=O)C(O)C[C@H]1Cn1cc(Br)c(=O)[nH]c1=O (stereo partly drawn) [cis-15d:trans-15d (53:47)] | – | – | – | – | > 100 µM |
| 58.5 µM | 51.5 µM | 28.6 µM | 28 µM | – | inhibited the proliferation | CN1C(=O)[C@H](O)C[C@@H]1Cn1cc(Cl)c(=O)[nH]c1=O (relative stereo) [cis-15e, cis-5-Chloro-1-[(4-hydroxy-1-methyl-5-oxopyrrolidin-2-yl)methyl]pyrimidine-2,4(1H,3H)-dione] | – | – | – | – | > 100 µM |
